One may read the inhibition as the relative decrease from the control value, in per cent. The term IC50 denotes the midpoint of a concentration-inhibition curve. By melting point is commonly meant the temperature of the solid-liquid transition.

A value given as a limit tells only on which side of the number the result lay.

Series [1] has as its target Human 11β-HSD1 (Homo sapiens, UniProt P28845). Description: 11β-HSD1 HEK assay (whole HEK 293 cells stably transfected with HSD11B1, SPA). The class given is cell-based. As to conditions: for inhibition at 10 µM: HEK293, read-out: % INHIBITION of Human 11 β-HSD1 at 10 μM (HEK); for IC50: HEK293, read-out: IC50 (nM) Inhibition of Human 11β-HSD1 (HEK293). Set-up: expressed in transfected cells; host or cells: HEK 293. As for the experimental part: 11β-HSD1 HEK Assay Protocol (Cell Based Assay)
11β-HSD1 activity is measured in whole HEK 293 cells stably transfected with the HSD11B1 gene. Cells are incubated in 96-well microplates in the presence of tritiated substrate. Enzyme activity is determined by measuring the amount of tritated product by scintillation proximity assay (SPA). Assay plates contain internal high and low controls to allow calculation of percentage inhibition.
2. When the cells are 80% confluent the medium is removed from each well. 100 μl fresh, serum-free, medium containing ^3H-cortisone and test compound in 1% DMSO is added to each well*. Control wells are also dispensed.
3. The plate is incubated at […] for the required time period.
4. 50 μl of media is removed from each well and transferred to a microplate containing 100 μl of a pre-incubated mixture of anti-cortisol antibody and SPA bead. The mixture is incubated with gentle shaking until equilibrium is reached, before transferring to a scintillation counter to establish the enzyme activity in each sample.
10 μl of compound is dispensed into each well of a 96-well microplate in 10% DMSO at 100 μM concentration. 90 μl media containing ^3H-cortisone is added to each well. The compound/media/substrate mixture is then transferred to the assay plate containing the cells.

Sequence of Human 11β-HSD1 (P28845 whole entry): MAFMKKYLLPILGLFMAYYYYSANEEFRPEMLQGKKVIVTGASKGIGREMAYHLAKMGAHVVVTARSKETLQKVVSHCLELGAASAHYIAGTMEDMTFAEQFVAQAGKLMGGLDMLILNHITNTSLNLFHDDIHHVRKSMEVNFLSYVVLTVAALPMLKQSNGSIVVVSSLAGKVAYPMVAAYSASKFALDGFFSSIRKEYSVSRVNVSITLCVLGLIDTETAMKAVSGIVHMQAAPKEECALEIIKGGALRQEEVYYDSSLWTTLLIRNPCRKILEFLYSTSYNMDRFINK

For the compound `O=C(N1CCc2sccc2C1)C12CC3CC(CC(C3)C1)C2` [compound 1721], the inhibition at 10 µM in series [1] was over 60%.
As for `O=C(NCCc1cccs1)C1(c2ccc(Cl)cc2)CCCC1` [compound 1651], the inhibition at 10 µM in series [1] is under 20%.
On the same count and under the same terms, next, `CN(Cc1cccs1)C(=O)CC12CC3CC(CC(C3)C1)C2` [compound 1661]: over 60%.
Take `NC(=O)c1ccc(OCC(=O)C23CC4CC(CC(C4)C2)C3)cc1` [Compound 1]: the IC50 in series [1] turned out to be 117 nM.
On the same count and under the same terms, next, `CNC(=O)Cc1ccc(OCC(=O)C23CC4CC(CC(C4)C2)C3)cc1` [Compound 13]: 94 nM; `CCNC(=O)Cc1ccc(OCC(=O)C23CC4CC(CC(C4)C2)C3)cc1` [Compound 16]: 912 nM.
With `O=C(NCCc1cccs1)NC12CC3CC(CC(C3)C1)C2` [compound 1714], the inhibition at 10 µM in series [1] is over 60%.
For the compound `O=C(NCc1cccs1)C12CC3CC(CC1C3)C2` [compound 1648], the inhibition at 10 µM in series [1] is over 60%.
Same read-out and setting: next, `O=C(NCCc1cccs1)[C@@H]1CC2C=CC1C2` (stereo partly shown) [compound 1708]: 20 to 60%; `O=C(NCc1cccs1)C1CCCCC1` [compound 1638]: 20 to 60%; `O=C(NC12CC3CC(CC(C3)C1)C2)OCc1cccs1` [compound 1711]: over 60%.
Regarding `NC(=O)c1cccc(OCC(=O)C23CC4CC(CC(C4)C2)C3)c1` [Compound 9], in series [1], the IC50 worked out at 1050 nM.
`CN(Cc1cccs1)C(=O)C1(C)CC1` [compound 1697]: the inhibition at 10 µM in series [1] is under 20%.
Turning to `CNC(=O)c1cccc(OCC(=O)C23CC4CC(CC(C4)C2)C3)c1` [Compound 10], in series [1], the IC50 stood at 68 nM.
Consider `O=C(NCc1csc2ccccc12)C12CC3CC(CC(C3)C1)C2` [compound 1689], for which, in series [1], the inhibition at 10 µM was in the range of 20 to 60%.
In the case of `CN(Cc1cccs1)C(=O)C12CC3CC(CC(C3)C1)C2` [compound 1700], the inhibition at 10 µM in series [1] was over 60%.
Same read-out and setting: the figure for `CC(C(=O)NCc1cccs1)(c1ccccc1)c1ccccc1` [compound 1640] is 20 to 60%; for `CC1(C(=O)NCc2cccs2)CCCCC1` [compound 1642] it is 20 to 60%.
Regarding `CN(Cc1cccs1)C(=O)C1CCCCC1` [compound 1693], the inhibition at 10 µM in series [1] is over 60%.
Same read-out and setting: the figure for `CN(Cc1cccs1)C(=O)C(C)(C)C` [compound 1695] is under 20%.
Still for that read-out and setting: next, `CN(Cc1cccs1)C(=O)C1(C)CCCCC1` [compound 1699]: over 60%; `CC1(C(=O)NCc2cccs2)CC1` [compound 1641]: 20 to 60%; `CC1(C(=O)NCCc2cccs2)CCCCC1` [compound 1655]: over 60%.
On the same count and under the same terms, the figure for `O=C(NCc1cccs1)NC12CC3CC(CC(C3)C1)C2` [compound 1713] is 20 to 60%; for `Cn1cccc1CNC(=O)CC12CC3CC(CC(C3)C1)C2` [compound 1663] it is over 60%; for `O=C(NCCc1cccs1)C12CC3CC(CC(O)(C3)C1)C2` [compound 1676] it is over 60%.
For `CC(C)(C)CC(=O)NCc1cccs1` [compound 1639], in series [1], the inhibition at 10 µM was in the range of 20 to 60%.
`O=C(COCc1cccs1)C12CC3CC(CC(C3)C1)C2` [compound 1692]: in series [1], the inhibition at 10 µM was over 60%.
Consider `NC(=O)Cc1ccc(OCC(=O)C23CC4CC(CC(C4)C2)C3)cc1` [Compound 15], for which the IC50 in series [1] came out at 204 nM.
For `Cc1c(Cl)cccc1S(=O)(=O)NCC12CC3CC(CC(C3)C1)C2` [compound 1370], in series [1], the inhibition at 10 µM was 20 to 60%.
`O=C(NCc1cc2ccccc2s1)C12CC3CC(CC(C3)C1)C2` [compound 1688]: in series [1], the inhibition at 10 µM is under 20%.
Regarding `CC1(C(=O)NCCc2cccs2)CC1` [compound 1654], the inhibition at 10 µM in series [1] fell in the range of 20 to 60%.
The same measure, in the same setting: the figure for `O=C(CC12CC3CC(CC(C3)C1)C2)NCc1ccco1` [compound 1662] is over 60%; for `O=C(NCc1cccs1)C12CC3CC(CC(O)(C3)C1)C2` [compound 1675] it is under 20%; for `CN(Cc1cccs1)C(=O)CC(C)(C)C` [compound 1694] it is over 60%.
On the same count and under the same terms, the figure for `O=C(NCc1cccs1)[C@H]1CC2C=CC1C2` (stereo partly shown) [compound 1706] is 20 to 60%.
Still for that read-out and setting: the figure for `c1csc(Cc2noc(C34CC5CC(CC(C5)C3)C4)n2)c1` [compound 1687] is 20 to 60%; for `CN(Cc1cccs1)C(=O)[C@@H]1CC2C=CC1C2` (stereo partly shown) [compound 1710] it is over 60%; for `CC12CC3CC(C)(C1)CC(C(=O)NCCc1cccs1)(C3)C2` [compound 1672] it is over 60%.
On to `O=C(CC12CC3CC(CC(C3)C1)C2)NCc1csc2ccccc12` [compound 1691], for which the inhibition at 10 µM in series [1] was in the range of 20 to 60%.
Turning to `CC(C)NC(=O)c1cccc(OCC(=O)C23CC4CC(CC(C4)C2)C3)c1` [Compound 12], the IC50 in series [1] is 1220 nM.
As for `CC(C(=O)NCCc1cccs1)(c1ccccc1)c1ccccc1` [compound 1650], the inhibition at 10 µM in series [1] is under 20%.
For `CC(C)(C)C(=O)NCCc1cccs1` [compound 1674], in series [1], the inhibition at 10 µM is 20 to 60%.
On the same count and under the same terms, next, `Cc1nc2cc(NC(=O)CC34CC5CC(CC(C5)C3)C4)ccc2s1` [compound 1566]: 20 to 60%; `CN(Cc1cccs1)C(=O)C1(c2ccc(Cl)cc2)CCCC1` [compound 1696]: over 60%.
For the compound `CNC(=O)c1ccc(COCC(=O)C23CC4CC(CC(C4)C2)C3)cc1` [Compound 18], the half-maximal inhibitory concentration (IC50) in series [1] stood at 250 nM.
`CN(Cc1cccs1)C(=O)C(C)(c1ccccc1)c1ccccc1` [compound 1698]: in series [1], the inhibition at 10 µM fell in the range of 20 to 60%.
Same read-out and setting: next, `CC(C)(C)CC(=O)NCCc1cccs1` [compound 1652]: 20 to 60%.
In the case of `O=C(NC12CC3CC(CC(C3)C1)C2)OCCc1cccs1` [compound 1712], the inhibition at 10 µM in series [1] is over 60%.
Consider `CC(C)(C)C(=O)NCc1cccs1` [compound 1673], for which the inhibition at 10 µM in series [1] lay in the range of 20 to 60%.
Same read-out and setting: the figure for `Cc1ccc(Cc2noc(CC34CC5CC(CC(C5)C3)C4)n2)cc1` [compound 1664] is 20 to 60%.
The same measure, in the same setting: next, `O=S(=O)(NC12CC3CC(CC(C3)C1)C2)c1cc(Cl)ccc1Cl` [compound 1342]: 20 to 60%; `O=C(CC12CC3CC(CC(C3)C1)C2)NCc1cc2ccccc2s1` [compound 1690]: 20 to 60%; `CC12CC3CC(C)(C1)CC(C(=O)NCc1cccs1)(C3)C2` [compound 1671]: over 60%.
For the compound `O=C(NCCc1cccs1)[C@H]1CC2C=CC1C2` (stereo partly shown) [compound 1707], in series [1], the inhibition at 10 µM was in the range of 20 to 60%.
Consider `Cc1c(C(=O)CS(=O)(=O)Cc2ccc(Cl)cc2)sc2ccc(Cl)cc12` [STX2296, 1-(5-Chloro-3-methyl-benzo[b]thiophen-2-yl)-2-(4-chloro-phenylmethanesulfonyl)-ethanone], for which the melting point lay within 204.5 to 205.5 °C.
On the same count and under the same terms, next, `O=C(CC12CC3CC(CC(C3)C1)C2)NCc1ccc(Cl)cc1`: 166 to 168 °C.
The same measure, in the same setting: next, `O=S(=O)(NC12CC3CC(CC(C3)C1)C2)c1cccs1` [STX1573, Thiophene-2-sulfonic acid adamantan-1-ylamide]: 129 to 131 °C; `CC1(C(=O)NCc2cccs2)CC1` [STX1641, 1-Methyl-cyclopropanecarboxylic acid (thiophen-2-yl methyl)-amide]: 70 to 71 °C.
As to `CN(Cc1cccs1)C(=O)[C@H]1CC2C=CC1C2` (stereo partly shown) [compound 1709], the inhibition at 10 µM in series [1] is over 60%.
`O=C(N(Cc1cccs1)CC1CCCCC1)C12CC3CC(CC(C3)C1)C2`: the melting point was 112 to 115.5 °C.
With `Cc1c(Cl)cccc1S(=O)(=O)NC12CC3CC(CC(C3)C1)C2` [compound 1343], in series [1], the inhibition at 10 µM lay in the range of 20 to 60%.
Turning to `O=C(NCCc1cccs1)C12CC3CC(CC1C3)C2` [compound 1656], in series [1], the inhibition at 10 µM was over 60%.
In the case of `O=S(=O)(NCC12CC3CC(CC(C3)C1)C2)c1ccc(-c2ccccc2)cc1` [compound 1371], the inhibition at 10 µM in series [1] was 20 to 60%.
`O=C(N1CCc2sccc2C1)C12CC3CC(CC(C3)C1)C2` [STX1721, Adamantan-1-yl-(6,7-dihydro-4H-thieno[3,2-c]pyridin-5-yl)-methanone] gave a melting point of 141 to 143 °C.
On to `CCNC(=O)c1cccc(OCC(=O)C23CC4CC(CC(C4)C2)C3)c1` [Compound 11], for which, in series [1], the IC50 was found to be 343 nM.
`Cc1ccc(Cc2noc(C34CC5CC(CC(C5)C3)C4)n2)cc1` [compound 1660]: the inhibition at 10 µM in series [1] lay within 20 to 60%.

These data come from patent US20100120789A1, “Compound” (priority 2005, published 2010).
